Assay results from PMC8286840, “Identifying SARS-CoV-2 antiviral compounds by screening for small molecule inhibitors of Nsp3 papain-like protease” (Biochemical Journal, 2021).
Counter-ions that a name gives are not always drawn. Like-named read-outs stand apart in the source and are kept apart here.

Key:
[1] = molecular target: T1, SARS-CoV-2 PLpro (nsp3 1564–1878) (Severe acute respiratory syndrome coronavirus 2, UniProt P0DTD1); experiment: biochemical; parameters: FRET-quenched peptide (Pro3) cleavage by PLpro, 10 min pre-incubation, slope over 20 min, normalised to no-compound control; conditions: low concentration screen, read-out: % of control remaining
[2] = molecular target: T1, SARS-CoV-2 PLpro (nsp3 1564–1878); experiment: biochemical; parameters: FRET-quenched peptide (Pro3) cleavage by PLpro, 10 min pre-incubation, slope over 20 min, normalised to no-compound control; conditions: high concentration screen, read-out: % of control remaining

C=C[C@](C)(O)CC[C@H]1C(=C)CC[C@H]2C(C)(C)CCC[C@]12C [Manool]
remaining activity at 1.25 µM ([1]; Well no.=3389): 95.7% | remaining activity at 3.75 µM ([2]; Well no.=3389): 98.7%

O=P(O)(O)C(O)(Cc1cccnc1)P(=O)(O)O [Risedronate sodium]
remaining activity at 1.25 µM ([1]; Well no.=4819): 104% | remaining activity at 3.75 µM ([2]; Well no.=4819): 102%

O=c1c(O)c(-c2ccc(O)cc2)oc2cc(O)cc(O)c12 [Kaempferol]
remaining activity at 1.25 µM ([1]; Well no.=3426): 89.4% | remaining activity at 1.25 µM ([1]; Well no.=6246): 105% | remaining activity at 3.75 µM ([2]; Well no.=3426): 90.3% | remaining activity at 3.75 µM ([2]; Well no.=6246): 109%

Cc1ccc(-c2cc(C(F)(F)F)nn2-c2ccc(S(N)(=O)=O)cc2)cc1 [Celecoxib]
remaining activity at 1.25 µM ([1]; Well no.=1818): 88.6% | remaining activity at 3.75 µM ([2]; Well no.=1818): 88.2%

CC1(C)CCC2=C(O1)c1ccccc1C(=O)C2=O
remaining activity at 1.25 µM ([1]; Well no.=3375): 95.6% | remaining activity at 1.25 µM ([1]; Well no.=3845): 96.1% | remaining activity at 3.75 µM ([2]; Well no.=3375): 84.1% | remaining activity at 3.75 µM ([2]; Well no.=3845): 91.8%

CNC(=O)CN1CCC(Oc2cc3c(Nc4cccc(Cl)c4F)ncnc3cc2OC)CC1 [AZD8931]
remaining activity at 1.25 µM ([1]; Well no.=5144): 103% | remaining activity at 3.75 µM ([2]; Well no.=5144): 102%

O=C(OC12CC3CC(CC(C3)C1)C2)c1ccc(NCc2cc(O)ccc2O)cc1 [Adaphostin]
remaining activity at 1.25 µM ([1]; Well no.=5772): 105% | remaining activity at 3.75 µM ([2]; Well no.=5772): 109%

Cc1o[nH]c(=O)c1CC(N)C(=O)O (racemic)
remaining activity at 1.25 µM ([1]; Well no.=508): 99.4% | remaining activity at 3.75 µM ([2]; Well no.=508): 100%

C[N+](C)(C)C[C@H](O)CC(=O)[O-] [L-carnitine]
remaining activity at 1.25 µM ([1]; Well no.=8100): 106% | remaining activity at 3.75 µM ([2]; Well no.=8100): 104%

CCN1CCC[C@H]1CNC(=O)c1cc(S(N)(=O)=O)ccc1OC [Levosulpiride]
remaining activity at 1.25 µM ([1]; Well no.=6851): 98% | remaining activity at 3.75 µM ([2]; Well no.=6851): 88.1%

CCN[C@H]1CN(CCCOC)S(=O)(=O)c2sc(S(N)(=O)=O)cc21 [Brinzolamide]
remaining activity at 1.25 µM ([1]; Well no.=5028): 105% | remaining activity at 3.75 µM ([2]; Well no.=5028): 105%

Nc1ccc(C(=O)O)cc1 [4-Aminobenzoic acid]
remaining activity at 1.25 µM ([1]; Well no.=6203): 97.3% | remaining activity at 3.75 µM ([2]; Well no.=6203): 101%

C[N+]1(C)CCC(=C(c2ccccc2)c2ccccc2)CC1 [Diphemanil Methylsulfate]
remaining activity at 1.25 µM ([1]; Well no.=5118): 109% | remaining activity at 3.75 µM ([2]; Well no.=5118): 108%

COc1cc(/C=C/C(=O)O)ccc1O [Ferulic acid]
remaining activity at 1.25 µM ([1]; Well no.=3518): 98.9% | remaining activity at 3.75 µM ([2]; Well no.=3518): 100%

Cc1cc(Nc2cc(CN3CCOCC3)c3nc(C)c(Cc4ccc(Cl)cc4F)n3n2)n[nH]1 [LY2784544]
remaining activity at 1.25 µM ([1]; Well no.=4806): 98.3% | remaining activity at 3.75 µM ([2]; Well no.=4806): 101%

CCCCNc1ccc(C(=O)OCCN(C)C)cc1 [Tetracaine hydrochloride]
remaining activity at 1.25 µM ([1]; Well no.=1228): 97.1% | remaining activity at 3.75 µM ([2]; Well no.=1228): 97.5%

CC(C)c1cc(C(C)C)c(CC(=O)NS(=O)(=O)Oc2c(C(C)C)cccc2C(C)C)c(C(C)C)c1 [Avasimibe]
remaining activity at 1.25 µM ([1]; Well no.=5705): 99.6% | remaining activity at 1.25 µM ([1]; Well no.=8336): 89.6% | remaining activity at 3.75 µM ([2]; Well no.=5705): 96.6% | remaining activity at 3.75 µM ([2]; Well no.=8336): 88%

CC(=O)[C@H]1CC[C@H]2[C@@H]3CCC4=CC(=O)CC[C@]4(C)[C@H]3CC[C@]12C [Progesterone]
remaining activity at 1.25 µM ([1]; Well no.=852): 106% | remaining activity at 1.25 µM ([1]; Well no.=2143): 95.2% | remaining activity at 1.25 µM ([1]; Well no.=7071): 105% | remaining activity at 3.75 µM ([2]; Well no.=852): 107% | remaining activity at 3.75 µM ([2]; Well no.=2143): 101% | remaining activity at 3.75 µM ([2]; Well no.=7071): 104%

CCOC(=O)c1c(CSc2ccccc2)n(C)c2cc(Br)c(O)c(CN(C)C)c12 [Arbidol HCl]
remaining activity at 1.25 µM ([1]; Well no.=5098): 104% | remaining activity at 3.75 µM ([2]; Well no.=5098): 107%

Nc1[nH]cnc2ncnc1-2 [Adenine]
remaining activity at 1.25 µM ([1]; Well no.=5004): 108% | remaining activity at 1.25 µM ([1]; Well no.=7253): 101% | remaining activity at 3.75 µM ([2]; Well no.=5004): 107% | remaining activity at 3.75 µM ([2]; Well no.=7253): 98.1%

CN(C)CC(c1ccc(O)cc1)C1(O)CCCCC1 (stereo not drawn) [Desvenlafaxine]
remaining activity at 1.25 µM ([1]; Well no.=5164): 94.5% | remaining activity at 3.75 µM ([2]; Well no.=5164): 96.9%

C=CCn1c(=O)c2cnc(Nc3ccc(N4CCN(C)CC4)cc3)nc2n1-c1cccc(C(C)(C)O)n1 [MK-1775]
remaining activity at 1.25 µM ([1]; Well no.=4947): 102% | remaining activity at 3.75 µM ([2]; Well no.=4947): 99.7%

COc1c2c3c4c(c(OC)c(=O)c5c(O)cc(OC)c(c6c(OC)cc(O)c(c1=O)c63)c54)[C@@H](C(C)=O)[C@@](C)(O)C2 [Hypocrellin A]
remaining activity at 1.25 µM ([1]; Well no.=3645): 94% | remaining activity at 3.75 µM ([2]; Well no.=3645): 92.4%

O=C(O)c1ccc(Nc2ncc3c(n2)-c2ccc(Cl)cc2C(c2c(F)cccc2F)=NC3)cc1 [MLN8054]
remaining activity at 1.25 µM ([1]; Well no.=4659): 105% | remaining activity at 3.75 µM ([2]; Well no.=4659): 98.1%

COC(=O)/C=C/C(=O)OC [Dimethyl Fumarate]
remaining activity at 1.25 µM ([1]; Well no.=5294): 93.6% | remaining activity at 3.75 µM ([2]; Well no.=5294): 94.2%

CC(C)c1ccc2c(c1)c(SC(C)(C)C)c(CC(C)(C)C(=O)O)n2Cc1ccc(Cl)cc1 [MK-886]
remaining activity at 1.25 µM ([1]; Well no.=1018): 105% | remaining activity at 3.75 µM ([2]; Well no.=1018): 104%

Cc1[nH]c(/C=C2\C(=O)Nc3ccc(S(=O)(=O)Cc4c(Cl)cccc4Cl)cc32)c(C)c1C(=O)N1CCC[C@@H]1CN1CCCC1 [PHA 665752 - (2R)-1-[[5-[(Z)-[5-[[(2,6-Dichlorophenyl)methyl]sulfonyl]-1,2-dihydro-2-oxo-3H-indol-3-ylidene]methyl]-2,4-dimethyl-1H-pyrrol-3-yl]carbonyl]-2-(1-pyrrolidinylmethyl)pyrrolidine]
remaining activity at 1.25 µM ([1]; Well no.=2590): 96.2% | remaining activity at 3.75 µM ([2]; Well no.=2590): 98.3%

O=C(O)[C@H]1NCCC[C@H]1C(=O)O
remaining activity at 1.25 µM ([1]; Well no.=1161): 106% | remaining activity at 3.75 µM ([2]; Well no.=1161): 106%

NS(=O)(=O)c1cc(C(=O)O)c(NCc2ccco2)cc1Cl [Furosemide]
remaining activity at 1.25 µM ([1]; Well no.=659): 92.2% | remaining activity at 1.25 µM ([1]; Well no.=2166): 101% | remaining activity at 1.25 µM ([1]; Well no.=7462): 102% | remaining activity at 3.75 µM ([2]; Well no.=659): 94.4% | remaining activity at 3.75 µM ([2]; Well no.=2166): 99.5% | remaining activity at 3.75 µM ([2]; Well no.=7462): 102%

CCCCCCCN(CC)CCCC(O)c1ccc(NS(C)(=O)=O)cc1 (stereo not drawn) [Ibutilide fumarate]
remaining activity at 1.25 µM ([1]; Well no.=5096): 93.1% | remaining activity at 3.75 µM ([2]; Well no.=5096): 102%

O=C(O)c1cc(=O)c2c(Cl)cc(Cl)cc2[nH]1 [5,7-Dichlorokynurenic acid]
remaining activity at 1.25 µM ([1]; Well no.=546): 95.2% | remaining activity at 3.75 µM ([2]; Well no.=546): 97.5%
